Earlier results as cited in patent publication US6670392B2, “Compositions and methods for the prevention and treatment of human prostate cancer” (Bioadvantex Pharma Inc., priority 2001, dated 2003).

Conditions: synthetic dl-α-tocopherol as standard; cited from earlier work

Compound: Cc1c(C)c2c(c(C)c1O)CC[C@@](C)(CCC[C@H](C)CCC[C@H](C)CCCC(C)C)O2 [d-α-tocopherol]
- bioactivity relative to synthetic dl-α-tocopherol: 1.49 times
